Key:
[1] = target: T1, hMAO-B (Homo sapiens, UniProt P27338); assay: MAO-B inhibition, fluorometric method, p-tyramine substrate; type: biochemical; settings: two experiments in duplicate
T1 construct: purchased Sigma-Aldrich M7441
T1 sequence (P27338 1-520): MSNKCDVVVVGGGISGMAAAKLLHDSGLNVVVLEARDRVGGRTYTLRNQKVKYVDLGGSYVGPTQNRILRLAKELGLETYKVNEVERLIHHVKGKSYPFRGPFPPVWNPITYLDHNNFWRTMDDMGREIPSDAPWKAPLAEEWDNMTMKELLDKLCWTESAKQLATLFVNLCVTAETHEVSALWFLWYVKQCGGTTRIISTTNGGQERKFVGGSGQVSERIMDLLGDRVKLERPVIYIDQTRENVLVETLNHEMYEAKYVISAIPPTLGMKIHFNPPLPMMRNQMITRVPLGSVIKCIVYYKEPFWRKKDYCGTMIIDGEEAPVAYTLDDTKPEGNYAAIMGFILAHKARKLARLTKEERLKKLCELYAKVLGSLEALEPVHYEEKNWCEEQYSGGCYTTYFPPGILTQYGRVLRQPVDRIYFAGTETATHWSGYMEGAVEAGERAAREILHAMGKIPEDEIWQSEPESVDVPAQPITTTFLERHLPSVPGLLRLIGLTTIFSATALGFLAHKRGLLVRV

[2] = target: T2, h5-HT6R (Homo sapiens, UniProt P50406); assay: 5-HT6R radioligand binding ([3H]-LSD) in HEK293 cells stably expressing h5-HT6R; settings: 2 nM [3H]-LSD, mean of three independent experiments, read-out: Ki ± SEM [nM] 5-HT6R
T2 construct: expressed in transfected cells
T2 sequence (P50406 whole entry): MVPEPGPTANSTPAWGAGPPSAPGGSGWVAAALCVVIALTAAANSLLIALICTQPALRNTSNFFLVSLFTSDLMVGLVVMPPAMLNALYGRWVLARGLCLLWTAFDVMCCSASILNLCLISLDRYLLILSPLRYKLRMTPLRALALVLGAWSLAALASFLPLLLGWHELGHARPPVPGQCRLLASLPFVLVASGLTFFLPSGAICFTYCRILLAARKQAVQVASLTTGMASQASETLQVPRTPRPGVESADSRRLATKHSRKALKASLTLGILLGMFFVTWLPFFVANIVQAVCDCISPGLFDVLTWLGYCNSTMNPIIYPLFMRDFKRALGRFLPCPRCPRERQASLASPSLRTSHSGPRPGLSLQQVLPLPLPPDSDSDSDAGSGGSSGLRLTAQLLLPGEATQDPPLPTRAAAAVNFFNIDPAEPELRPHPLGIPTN

[3] = test system: oAβ25–35-induced memory deficits in rats; assay: oAβ25–35-induced memory deficits in T-maze test in rats; type: in vivo, rat
Procedure: For the AD model, adult male Sprague–Dawley rats (Janvier Lab., France) weighing 260–280 g (8 weeks) at the beginning of the experiments were housed 1 week before experiments in a standard animal facility of the University of Montpellier (CECEMA, registration number E34-172-23) (12/12 h light/dark cycle with lights on at 07:00; 21 ± 1 °C, food and water ad libitum). All experiments, including sacrifices, were performed in conscious rats between 09:00 and 12:00, during the diurnal period of the circadian rhythm. Male has been preferred over female because the latter may present a confounding factor of the estrous cycle, a parameter that needs to be systematically controlled. Animal procedures were conducted in strict adherence to the European Union Directive of 2010 (2010/63/EU). The National French Animal Welfare Committee and the local committee at the University of Montpellier approved all protocols (authorization: CEEA-LR-12160). All efforts were made to minimize the number of animals used, potential pain, suffering, and distress.
As previously detailed,[37],[64] to induce the acute model of AD (oAβ25–35 model), rats were divided into three groups. One group had no surgery (Naive group), a second set of animals received an intracerebroventricular (icv) injection of incubated scrambled peptide (negative control groups—10 μg/rat—Sc), and a third set received an icv injection of oAβ25–35 (AD groups—10 μg/rat—Aβ). The animals were anesthetized with an intraperitoneal (ip) injection of a mixture of ketamine and xylazine (80 and 10 mg/kg b.w., respectively). Scrambled peptide and oAβ25–35 were injected directly into the lateral ventricles at a rate of 2 μL/min using a David-Kopf stereotaxic apparatus (coordinates of injection: AP −1 mm, L ±1.5 mm, DV −3.5 mm).
1—A curative approach: This treatment was started 1 week after the induction of amyloid toxicity (icv injection of oAβ25–35) and consisted of 2 ip injections (1.5 mg/kg per injection) per day for 1 week. On day 14, animals were subjected to a behavioral memory test (T-maze) and sacrificed on day 15 by decapitation.
(§1) 2—A preventive approach: This treatment was started at the same time as the induction of amyloid toxicity and consisted of implanting ip, and during the same anesthetic procedure necessary for the icv injection of oAβ25–35, an osmotic pump (Alzet-EML2, Charles-River, France) which continuously delivered the molecules for 1 week at the dose of 3 mg/kg/day. On day 7, animals were submitted to a behavioral memory test (T-maze) and sacrificed on day 8 by decapitation.
As previously reported, the T-maze test was used to rapidly assess cognitive ability in rats, especially the short-term memory deficits, when performed in two successive sessions.[37],[38],[64],[65] The T-maze consisted of two short arms (A and B), extending from a longer alley (C) and enclosed with high walls. The test involved two trials, separated by 1 h. During the training session, one short arm (B) was closed. Rats were placed at the end of the long alley, allowed to visit the maze for 10 min, and then returned to their home cage. […] The number of visits and time spent in each arm were measured. The results were expressed as the ratio of the time spent in the initially closed novel arm, over the time spent in the previous arm, and as a ratio of the number of entries into the novel arm over the familiar one. […]

[4] = test system: hippocampus of rats injected with oAβ25–35; assay: Western blot of hippocampal AD biomarkers in oAβ25–35-injected rats; type: in vivo, rat; settings: oAβ25–35 icv
Procedure: As previously detailed,[37],[64] to induce the acute model of AD (oAβ25–35 model), rats were divided into three groups. […] The animals were anesthetized with an intraperitoneal (ip) injection of a mixture of ketamine and xylazine (80 and 10 mg/kg b.w., respectively). Scrambled peptide and oAβ25–35 were injected directly into the lateral ventricles at a rate of 2 μL/min using a David-Kopf stereotaxic apparatus (coordinates of injection: AP −1 mm, L ±1.5 mm, DV −3.5 mm).
On day 14, animals were subjected to a behavioral memory test (T-maze) and sacrificed on day 15 by decapitation.
as §1
At the time of sacrifice, all hippocampi were dissected out, weighed, and rapidly frozen in liquid nitrogen for Western blot (WB) analysis.
Western blot analyses were performed on the whole hippocampus as previously described.[37] All antibodies used are detailed in Table S3. Briefly, after sacrifice, hippocampi were microdissected, weighed, immediately frozen in liquid nitrogen, and stored at −20 °C. Tissues were sonicated (VibraCell; Sonics & Materials, USA) in a lysis buffer[37] and centrifuged (4 °C). Supernatants were collected, and the protein concentration was measured using a bicinchoninic Acid (BCA) assay (ThermoFisher Scientific, France). […] The membranes were incubated overnight (4 °C) with the primary antibody, washed, and then incubated for 2 h with the appropriate horseradish peroxidase-conjugated secondary antibody. […] The intensity of the immunoreactive signals was quantified using Image-J software (NIH, Bethesda, […], USA). β-Tubulin (β-Tub) was used as a loading control for all experiments.

[5] = target: T1, hMAO-B; assay: MAO-B reversibility study; type: biochemical; settings: at concentrations corresponding to IC80, p-tyramine raised to 1 mM
[6] = 1.5 mg/kg ip twice a day for 7 days

Cl.Clc1cccc(Cn2ccc3c(NC[C@H]4CCNC4)nc4ccccc4c32)c1 [Compound 11]
pIC50 ± SEM (MAO-B) [1]: 8.02 ± 0.12 | Ki [2]: 140 ± 18 nM

Cl.Clc1cccc(Cn2ccc3c(N4C[C@H]5C[C@@H]4CN5)nc4ccccc4c32)c1 [Compound 18]
pIC50 ± SEM (MAO-B) [1]: 6.73 ± 0.02 | Ki [2]: 372 ± 48 nM

Cl.Clc1cccc(Cn2ccc3c(N4CC5(CCNC5)C4)nc4ccccc4c32)c1 [Compound 20, 1-(3-Chlorobenzyl)-4-(2,6-diazaspiro[3.4]octan-2-yl)-1H-pyrrolo[3,2-c]quinoline Hydrochloride]
pIC50 ± SEM (MAO-B) [1]: 7.01 ± 0.11 | Ki [2]: 677 ± 82 nM

Cl.c1ccc(Cn2ccc3c(N[C@H]4CCNC4)nc4ccccc4c32)cc1 [Compound 3]
pIC50 ± SEM (MAO-B) [1]: 6.57 ± 0.03 | Ki [2]: 21 ± 3 nM

O=S(=O)(c1ccccc1)c1cnc2c(N3CCNCC3)cccc2c1 [Intepirdine, reference compound]
effect on oAβ25–35-induced memory deficits in T-maze, curative treatment ([3]; 1.5 mg/kg ip twice a day for 7 days, started 1 week after icv oAβ25–35): only partially reversed the memory deficits | effect on oAβ25–35-induced memory deficits in T-maze, preventive treatment ([3]; 3 mg/kg/day by ip osmotic pump for 1 week, concomitant with icv oAβ25–35): did not exhibit the same preventive effect | hippocampal Caspase-3 and Pro-caspase-3 expression, curative strategy [4, 6]: decreased expression of Caspase-3 and Pro-caspase-3 | hippocampal PSD-95 and SYN levels, curative treatment [4, 6]: reversed only the SYN level | hippocampal Caspase-3 and Pro-caspase-3 expression, preventive treatment ([4]; 3 mg/kg/day osmotic pump 1 week): prevented increased expression of Caspase-3 and Pro-caspase-3 | hippocampal GFAP increase ([4]; curative and preventive approach): Neither PZ-1922 nor intepirdine impacted the GFAP increase

Cl.NC[C@@H]1CCN(c2nc3ccccc3c3c2ccn3Cc2cccc(Cl)c2)C1 [Compound 14]
pIC50 ± SEM (MAO-B) [1]: 8.00 ± 0.00 | Ki [2]: 1520 ± 220 nM

Cl.Clc1cccc(CNc2ccnc(N3CCNCC3)c2)c1 [Compound 26]
pIC50 ± SEM (MAO-B) [1]: 5.18 ± 0.04 | Ki [2]: 5450 ± 793 nM

Cl.Clc1cccc(Cn2ccc3c(NC[C@@H]4CCCN4)nc4ccccc4c32)c1 [Compound 10, (S)-1-(3-Chlorobenzyl)-N-(pyrrolidin-2-ylmethyl)-1H-pyrrolo[3,2-c]quinolin-4-amine Hydrochloride]
pIC50 ± SEM (MAO-B) [1]: 6.52 ± 0.04 | Ki [2]: 226 ± 30 nM

Cl.Clc1cccc(Cn2ccc3c(N[C@H]4CCNC4)nc4ccccc4c32)c1 [Compound 5, (S)-1-(3-Chlorobenzyl)-N-(pyrrolidin-3-yl)-1H-pyrrolo[3,2-c]quinolin-4-amine Hydrochloride]
pIC50 ± SEM (MAO-B) [1]: 6.92 ± 0.04 | Ki [2]: 7 ± 1 nM

Cl.Clc1cccc(Cn2ccc3c(C4=CCNCC4)nc4ccccc4c32)c1 [Compound 22]
pIC50 ± SEM (MAO-B) [1]: 6.67 ± 0.04 | Ki [2]: 34 ± 4 nM

Cl.Clc1cccc(Cn2ccc3c(N[C@@H]4CCNC4)nc4ccccc4c32)c1 [Compound 6]
pIC50 ± SEM (MAO-B) [1]: 6.83 ± 0.01 | Ki [2]: 30 ± 4 nM

Brc1cccc(Cn2ccc3c(N[C@H]4CCNC4)nc4ccccc4c32)c1.Cl [Compound 7]
pIC50 ± SEM (MAO-B) [1]: 6.89 ± 0.12 | Ki [2]: 10 ± 1 nM

Cl.Clc1cccc(Cn2ccc3c(NC[C@@H]4CCNC4)nc4ccccc4c32)c1 [Compound 12]
pIC50 ± SEM (MAO-B) [1]: 6.52 ± 0.04 | Ki [2]: 122 ± 10 nM

Cl.Clc1cccc(Cn2ccc3c(C4CCNCC4)nc4ccccc4c32)c1 [Compound 23, 1-(3-Chlorobenzyl)-4-(piperidin-4-yl)-1H-pyrrolo[3,2-c]quinoline Hydrochloride]
pIC50 ± SEM (MAO-B) [1]: 6.13 ± 0.06 | Ki [2]: 541 ± 80 nM

Cl.Clc1cccc(Cn2ccc3c(N4CCCNCC4)nc4ccccc4c32)c1 [Compound 17]
pIC50 ± SEM (MAO-B) [1]: 7.69 ± 0.12 | Ki [2]: 138 ± 15 nM

C[C@H](NCc1ccc(OCc2cccc(F)c2)cc1)C(N)=O [Safinamide]
reversibility of MAO-B inhibition (recovery of MAO-B activity) [5]: reversible MAO-B inhibitors

C#CCN[C@@H]1CCc2ccccc21 [Rasagiline]
reversibility of MAO-B inhibition (recovery of MAO-B activity) [5]: irreversible inhibitor

CN(C)C1CCN(c2nc3ccccc3c3c2ccn3Cc2cccc(Cl)c2)C1.Cl (stereo not drawn) [Compound 13]
pIC50 ± SEM (MAO-B) [1]: 7.43 ± 0.04 | Ki [2]: 1340 ± 156 nM

CN(C)C1CCN(c2nc3ccccc3c3c2ccn3Cc2cccc(Cl)c2)CC1.Cl [Compound 19]
pIC50 ± SEM (MAO-B) [1]: 5.60 ± 0.02 | Ki [2]: 1270 ± 173 nM

Cl.Clc1cccc(Cn2ccc3c(NC[C@H]4CCCN4)nc4ccccc4c32)c1 [Compound 9]
pIC50 ± SEM (MAO-B) [1]: 5.70 ± 0.04 | Ki [2]: 214 ± 26 nM

Cl.Clc1cccc(Cn2ccc3c(CN4CCNCC4)nc4ccccc4c32)c1 [Compound 24]
pIC50 ± SEM (MAO-B) [1]: 5.21 ± 0.02 | Ki [2]: 119 ± 14 nM

COc1cccc(Cn2ccc3c(N[C@H]4CCNC4)nc4ccccc4c32)c1.Cl [Compound 8]
pIC50 ± SEM (MAO-B) [1]: 6.86 ± 0.07 | Ki [2]: 25 ± 3 nM

Cl.Clc1cccc(Cn2ccc3c(N4CC5(CNC5)C4)nc4ccccc4c32)c1 [Compound 21]
pIC50 ± SEM (MAO-B) [1]: 6.97 ± 0.05 | Ki [2]: 920 ± 127 nM

Cl.Fc1cccc(Cn2ccc3c(N[C@H]4CCNC4)nc4ccccc4c32)c1 [Compound 4]
pIC50 ± SEM (MAO-B) [1]: 6.16 ± 0.05 | Ki [2]: 21 ± 2 nM

Cl.Clc1cccc(CNc2cc(N3CCNCC3)nc3ccccc23)c1 [Compound 25]
pIC50 ± SEM (MAO-B) [1]: 5.36 ± 0.03 | Ki [2]: 152 ± 18 nM

CNC1CN(c2nc3ccccc3c3c2ccn3Cc2cccc(Cl)c2)C1.Cl [Compound 15]
pIC50 ± SEM (MAO-B) [1]: 8.22 ± 0.14 | Ki [2]: 723 ± 87 nM
